Laboratory results published in patent publication US8017350B2, “Glimepiride- and insulin-induced glycosylphosphatidylinositol-specific phospholipase C regulation” (Sanofi-Aventis Deutschland GmbH, priority 2004, dated 2011).

Columns and labels:
rat liver PI-PLC = experiment: mammalian PI-PLC assay; format: biochemical; settings: 50 μM
Protocol: Hormone-sensitive lipase (HSL) and lipoprotein lipase (LPL) were measured using a radiolabeled triolein droplet emulsion as described in “Vertesy et al., (2002) Journal Antibiotics 55:480-494”. Pancreatic lipase (PL) was determined by incubation of 0.25 mmol tributyrin in 2 ml of 5 mM Tris/HCl (pH 6.5), 6 mM sodium taurodeoxycholate, 150 mM NaCl, 1 mM CaCl2 with porcine PL and colipase in the same buffer using a recording pH stat (stirring at 1000 rpm at 25° C.) with the pH adjusted to 6.5. PC-PLC was assayed by incubation of 0.2 ml of 10 mM dipalmitoyllecithin, 0.1 ml of 10 mM SDC and 0.1 ml of 0.03 M CaCl2 with bacterial PC-PLC (in 50 mM Tris/HCl, pH 7.5, 0.1% BSA) for 10 min at 37° C. The reaction was terminated by addition of 0.1 ml of 50% TCA and subsequently of 2.5 ml of […]. After centrifugation (1500×g, 15 min), 0.2-ml portions of the upper methanol/water phase (˜1.33 ml) were removed, supplemented with 0.5 ml of 60% HClO4, then heated at 170° C. for 1 h and finally analyzed for inorganic phosphate. Mammalian PI-PLC was measured by incubation of 0.1 ml of 10 mM PI, 0.1 ml of 0.8% sodium deoxycholate, 0.1% BSA, 0.2 ml of 100 mM sodium borate (pH 7.5) and rat liver PI-PLC for 20 min at 37° C. The reaction was terminated and further processed as described for the PC-PLC. […] Radioactive phosphatidic acid was detected by phosphorimaging. […]

[1] = test system: lipolysis, rat adipocytes; experiment: Isoproterenol-induced lipolysis in rat adipocytes; format: cell-based; settings: GPI-2350 50 μM
Protocol: Electroporation was performed as described in “Müller, G. et al., (2000) Mol. Cell. Biol. 20: 4708-4723”. Lipolysis was determined as release of glycerol or fluorescent NBD-FA from prelabeled and isoproterenol-stimulated adipocytes as described in “Müller, G. et al., (2003) Biochimie 85: 1245-1256”. Gce1 was detected by photolabeling of solubilized plasma membranes or hc/lcDIGs (10-50 μg protein) with 8-N3—[^32P]cAMP and subsequent phosphorimaging as described in “Müller, G. et al., (1994) Biochemistry 33: 12149-12159”. 5′-Nuc, aP and AChE activities were measured according to “Eliakim, R. et al., (1990) Biochim. Biophys. Acta 1355: 293-302”. Protein was determined using the BCA protein determination kit from Pierce (Rockford, Ill.) and BSA as calibration standard. SDS-PAGE was performed using precast gels (Novex, San Diego, Calif.; 10% Bis-Tris resolving gel, morpholinopropanesulfonic acid-SDS running buffer). Lumiimages were evaluated on a LumiImager using LumiImager software (Roche Diagnostics). Phosphor- and fluorescence images were processed and quantified using the Storm 860 PhosphorImager system (Molecular Dynamics, Gelsenkirchen, Germany). Figures were constructed using the ADOBE PHOTOSHOP software (Adobe Systems, Mountain View, Calif.). […]

## CCCCCCCCCCCCP1(=O)O[C@@H]2[C@H](O)[C@@H](O)[C@H](O)[C@@H](O)[C@@H]2O1 (some centres unmarked) [GPI-2350, myo-inositol-1,2-cyclo-dodecylphosphonic acid]
Rat liver PI-PLC
  effect on PI-PLC: not significantly affected
[1]
  glimepiride inhibition of lipolysis with GPI-2350: to lower than control values
